In ChEMBL document CHEMBL1770103, “Synthesis and biological evaluation of dibenz[b,f][1,5]oxazocine derivatives for agonist activity at κ-opioid receptor” (Eur J Med Chem, 2011) one finds residual activity, IC50 and Activity data, which are given here for seven compounds.

The target in experiment [1] is Kappa-type opioid receptor (Mus musculus) (UniProt P33534). The experiment in a line: Displacement of [125I]dynorphin from kappa opioid receptor in BALB/c mouse brain membrane at 5 uM by liquid scintillation counting relative to control. Format: cell membranes. A general note: In a radioligand displacement assay an active substance lowers the binding of a labelled ligand.

Experiment [2] addresses Kappa-type opioid receptor (Mus musculus, UniProt P33534). As to the kind of experiment: Displacement of [125I]dynorphin from kappa opioid receptor in BALB/c mouse brain membrane by liquid scintillation counting. It is filed as cell membranes.
The target of experiment [3] is Mu-type opioid receptor (Mus musculus) (UniProt P42866). As to conditions: BALB/c, Brain, Membrane, at 5 µM.
Description: Displacement of [3H]DAMGO from mu opioid receptor in BALB/c mouse brain membrane at 5 uM by liquid scintillation counting relative to control
The target in experiment [4] is Kappa-type opioid receptor (Rattus norvegicus) (UniProt P34975). The experiment in a line: Agonist activity at kappa opioid receptor in rat C6 cells assessed as induction of ERK1/2 phosphorylation at 40 uM after 10 min by Western blot analysis in presence of KOP antagonist norBNI. It is filed as functional, cell-based. A general note: In western blotting, separated proteins are transferred to a membrane and probed.

The structures appear in SMILES notation. Active and inactive are the calls of the source. The rule behind the calls is not given here.

Sequence of Kappa-type opioid receptor (Mus musculus) (P33534 whole entry): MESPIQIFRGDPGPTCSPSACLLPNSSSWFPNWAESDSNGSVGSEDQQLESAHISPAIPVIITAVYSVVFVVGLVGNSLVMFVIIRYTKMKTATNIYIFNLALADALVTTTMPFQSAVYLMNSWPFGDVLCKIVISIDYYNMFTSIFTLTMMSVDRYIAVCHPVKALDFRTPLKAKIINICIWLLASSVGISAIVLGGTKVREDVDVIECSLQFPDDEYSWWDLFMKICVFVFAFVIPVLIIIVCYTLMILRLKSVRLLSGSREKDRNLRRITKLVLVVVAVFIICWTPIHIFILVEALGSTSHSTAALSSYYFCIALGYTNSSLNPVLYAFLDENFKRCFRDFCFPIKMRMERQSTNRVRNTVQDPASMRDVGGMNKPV
Sequence of Mu-type opioid receptor (Mus musculus) (P42866 whole entry): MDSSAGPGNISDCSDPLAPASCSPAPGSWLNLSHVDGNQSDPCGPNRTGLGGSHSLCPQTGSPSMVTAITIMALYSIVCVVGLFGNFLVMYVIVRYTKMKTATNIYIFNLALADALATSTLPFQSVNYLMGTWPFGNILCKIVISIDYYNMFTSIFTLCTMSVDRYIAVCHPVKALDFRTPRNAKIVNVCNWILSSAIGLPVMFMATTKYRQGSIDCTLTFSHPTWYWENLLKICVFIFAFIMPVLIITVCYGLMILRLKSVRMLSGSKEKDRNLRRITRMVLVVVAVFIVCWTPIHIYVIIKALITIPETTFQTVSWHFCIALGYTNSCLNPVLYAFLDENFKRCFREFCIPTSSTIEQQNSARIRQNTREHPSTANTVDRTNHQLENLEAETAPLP
Sequence of Kappa-type opioid receptor (Rattus norvegicus) (P34975 whole entry): as the sequence (P33534 whole entry) above, with D11E, S17A, S51P, A308V counted along it
Sequence of Kappa-type opioid receptor (P33534 whole entry): as the sequence (P33534 whole entry) above

Turning to `COc1ccc2c(c1)COc1ccccc1CN2c1ccccc1`, the residual activity (usually the signal under treatment as a percentage of the control signal) in experiment [1] came out at 29%; in experiment [3] it was 99%. In addition, in experiment [2], the IC50 (as a rule, the concentration that inhibits the measured activity by half) worked out at 2170 nM. The outcome in experiment [4] was inactive.

Turning to `COc1ccc(N2Cc3cccc(OC)c3OCc3ccccc32)cc1`, the residual activity in experiment [1] stood at 81%; in experiment [3], 90%.

With `COc1ccccc1N1Cc2cccc(OC)c2OCc2ccccc21`, the values for the residual activity in experiment [1] and in experiment [3] were 119% and 89%, respectively.

In the case of `COc1ccc(N2Cc3cccc(OC)c3OCc3cc4c(cc32)OCO4)cc1`, the figures for the residual activity in experiment [1] and in experiment [3] were 101% and 138%, respectively.

Take `COc1cccc2c1OCc1cc3c(cc1N(c1ccccc1)C2)OCO3`: the residual activity was 101% in experiment [1] and 78% in experiment [3].

As for `c1ccc(N2Cc3ccccc3OCc3ccccc32)cc1`, the values for the residual activity in experiment [1] and in experiment [3] were 87% and 80%, respectively.

For the compound `COc1ccc(N2Cc3ccccc3OCc3ccccc32)cc1`, the residual activity in experiment [1] stood at 81%; in experiment [3] it was 86%.
